Biological target: T1, HCV RNA-dependent RNA polymerase (Hepatitis C virus genotype 1a, UniProt P27958)
T1 construct: HCV RNA-dependent RNA polymerase is encoded in the NS5B (nonstructural protein 5B) region of HCV; made in house; host or cells: insect cells or E. coli
Test: DIG-UTP assay without radioisotope-labeled substrate, with pre-incubation (Example 2)
Assay type: biochemical
Conditions: pre-incubation 25° C. 1 hr, I-1 0.5 μg/ml, 3′-dUTP 0.7 μM, A 100 μg/ml, B 50 μg/ml, C 25 μg/ml
Description: In Example 1, ^3H-UTP, that is UTP labeled with tritium as radioisotope was used as substrate in the assay with pre-incubation using HCV RNA-dependent RNA polymerase. Herein, digoxigenin-labeled UTP (DIG-UTP) instead of ^3H-UTP was used as substrate in the assay with pre-incubation using HCV RNA-dependent RNA polymerase. • 1) Streptavidin (1 mg/ml) was dissolved in the phosphate buffer saline (PBS) containing NaCl (0.137 M), KCl (2.68 mM), potassium dihydrogenphosphate (1.47 mM) and sodium phosphate (8.06 mM). • 2) The streptavidin solution was diluted 25-fold with the carbonate buffer containing sodium carbonate (0.9 M) and sodium hydrogencarbonate (0.1 M). • 3) The 25-fold streptavidin solution (50 μl/well) was transferred to a well of 96 wells-microtiter palate with flat bottom for immunoassay and then the plate was kept at 4° C. over night. • 4) After the 96 wells-microtiter plate was coated with streptavidin, the well was washed twice by adding, mixing and draining PBS (200 μl/well). • 5) The skim milk dissolved with PBS (1%, 300 μl) was transferred into each well and was kept at room temperature for 30 min. • 6) After the plate was washed once with PBS (200 μl/well), the well was filled with PBS (300 μl/well) and then the plate was stored at 4° C. • 7) After the PBS was drained from the streptavidin-coated plate stored under the condition described in 6), the well was washed once with PBS (200 μl/well) and was filled with de-ionized water (300 μl/well). • 8) The buffer I (10 μl) containing Tris-HCl (100 mM, pH 7.5), MgCl2 (25 mM), dithiothreitol (5 mM), KCl (125 mM) and ethylenediaminetetraacetic acid (5 mM) was transferred to a polypropylene tube and then poly(A) solution (6.25 μg/ml, 10 μl), biotin-labeled oligo(U)12 solution (3 μg/ml, 10 μl), water (10 μl) and HCV RNA-dependent RNA polymerase solution (10 μl) were added into the tube and mixed calmly. • 9) De-ionized water was drained from the plate described in 7), and the solution (50 μl/well) at once after the mixing described in 8) was transferred to each well. After mixing by a plate mixer, the solution was pre-incubated at 25° C. for 1 hr. • 10) On the other hand, the buffer I (10 μl) was transferred into another tube, and UTP (1 μM, 10 μl), DIG-UTP (300 μM, 1 μl), water (24 μl) and a test compound dissolved with dimethyl sulfoxide or water (5 μl) were added to the tube and mixed calmly. Concentrations of the compounds used were as follows.
• 11) The mixed solution (50 μl/well) described in 10) was transferred into each well after the pre-incubation described in 9), mixed by a plate mixer and then incubated at 25° C. for 1 hr. • 12) When the enzyme reaction was in 1 hr, the enzyme reaction was stopped by adding ethylenediaminetetraacetic acid (0.1 M, 50 μl/well). • 13) The plate was washed twice with PBS (200 μl/well) after end of the enzyme reaction. • 14) Next, alkaline phosphatase-labeled anti-DIG antibody (3 U/ml, 100 μl/well) diluted 250-fold with PBS containing skim milk (0.5%) was transferred each well. […] The substrate solution was transferred into each well of the plate, mixed by a plate mixer and then incubated at 25° C. for 1 hr until the color appears in the solution. • 17) The plate was set on a plate reader and the absorbance was measured at 405 nm. • 18) The inhibitory rate was calculated from the optical density (unit; OD) measured as follows. […]

T1 sequence (P27958 2421-3011): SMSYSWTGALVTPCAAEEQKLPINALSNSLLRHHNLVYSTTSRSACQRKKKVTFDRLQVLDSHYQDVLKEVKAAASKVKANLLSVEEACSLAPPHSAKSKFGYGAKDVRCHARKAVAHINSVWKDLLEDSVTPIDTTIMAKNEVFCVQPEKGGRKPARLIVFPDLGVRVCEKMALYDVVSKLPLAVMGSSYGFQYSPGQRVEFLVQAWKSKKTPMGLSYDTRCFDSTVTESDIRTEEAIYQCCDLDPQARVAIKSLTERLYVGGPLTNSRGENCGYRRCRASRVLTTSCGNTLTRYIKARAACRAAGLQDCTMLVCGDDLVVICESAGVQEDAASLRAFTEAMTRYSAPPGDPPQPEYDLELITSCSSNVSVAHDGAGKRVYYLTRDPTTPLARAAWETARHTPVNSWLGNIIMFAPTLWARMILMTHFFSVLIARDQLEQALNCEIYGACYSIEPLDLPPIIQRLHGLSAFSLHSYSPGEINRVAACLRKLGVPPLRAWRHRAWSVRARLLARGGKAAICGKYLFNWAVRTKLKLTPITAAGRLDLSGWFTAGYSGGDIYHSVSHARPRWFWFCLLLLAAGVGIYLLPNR

Structure (SMILES)	Inhibitory rate, treatment of pre-incubation + [%]	inhibition at 0.5 µg/mL (read-out: Inhibitory rate, treatment of pre-incubation +) [%]
O=c1ccn([C@@H]2O[C@H](COP(=O)(O)OP(=O)(O)OP(=O)(O)O)C[C@H]2O)c(=O)[nH]1 [3′-dUTP, 3′-deoxyuridine triphosphate]	50	–
Cc1oc(-c2ccccc2)nc1CCOc1ccc(C=C2C(=O)NC(=O)NC2=O)cc1 [Compound A]	24	–
O=C1NC(=O)C(=Cc2ccc(OCCc3cccc4ccccc34)cc2)C(=O)N1 [Compound B]	20	–
CCCCC1=N/C(=C\c2ccccc2OCC(=O)O)C(=O)N1Cc1ccc(-c2ccccc2-c2nnn[nH]2)cc1 [Compound C]	15	–
O=C(O)/C(O)=C/C(=O)c1cccc(O)c1 [Compound I-1]	–	52

From US7018796B2, “Preincubation assay methods” (Shionogi & Co., Ltd., priority 2000, dated 2006)
